Measurements: patent US5468772A, “Tripterinin compound and method” (Pharmagenesis, Inc., priority 1993, dated 1995)

Key:
Assay type in all cases: cell-based
HT-2 cells = assay: Inhibition of IL-2 action: IL-2 stimulated HT-2 cell proliferation
Experimental: Briefly, HT-2 cells were incubated in the presence of IL2, and in the presence of increasing concentrations of tripterinin. After 20 hours incubation, tritiated thymidine was added and the incubation carried out for an additional 4 hours. Cells were harvested and counted as described for PBL proliferation. […] Half maximal inhibition occurred at about 0.1 μg/ml.
The effect of tripterinin on the action of IL-2 was assessed by measurement of the compound's ability to inhibit IL-2 stimulated growth of the IL-2 dependent cell line HT-2, a well-established biological assay of IL-2 action (O'Gara). HT-2 cells were cultured in 75 cm^2 (Corning) tissue culture flasks in RPMI 1640 medium containing 10% fetal bovine serum (Hyclone), 50 μM 2-mercaptoethanol (Fisher), 10 U/ml recombinant human IL-2 (Cetus), 20 mM HEPES, 2 mM glutamine, 100 U/ml penicillin and 100 μg/ml streptomycin. Cells were passaged every 2 days. For experiments, HT-2 cells were centrifuged at 180×g for 10 minutes, washed twice with 10 ml of IL-2 free culture medium and resuspended in RPMI 1640 medium prepared as above, except containing 5% fetal bovine serum. Final cell concentration was 1×10^4 /well. Cultures were incubated with varying concentrations of the tripterinin (95% air/5% CO2, 37° C.) for 20 hours. […] Cells were harvested and counted as described for the PBL proliferation assay.

IL2 = assay: IL-2 production by PHA stimulated human PBLs (ELISA); settings: 24 h
Experimental: (§1) The effect of tripterinin on the production of the cytokines IL-1b, IL2, IL-6, IFNγ, and TNFα was assessed by measurement of the concentration of these cytokines in PHA stimulated human PBL cultures. Cytokine levels were measured by standard ELISA methods using commercially available kits, as detailed in Example 6. Briefly, assay buffer was added to each of the wells of a microtiter plate containing pre-bound anti-cytokine antibody, followed by addition of standard or sample solution, diluted appropriately for the cytokine concentration measured, followed by a second reporter-labeled antibody specific against the anti-cytokine antibody. […]
(§2) Cytokine measurements were carried out using commercially available ELISA assay kits (R&D Systems), in accordance with the supplier's protocols. In brief, 100 μl of the assay buffer supplied was added to each of the wells of a microtiter plate containing pre-bound anti-cytokine antibody, followed by 100 μl of standard or sample solution, diluted appropriately for the concentration range measured. […]
(§3) Following two hours incubation, the plates were washed four times with assay buffer, and the second antibody, anti-anti-cytokine-horseradish peroxidase (HRP), was added to each well in a volume of 200 μl. […] Optical density was determined using a Molecular Devices microtiter plate reader.

[1] = tested on: cultured human PBLs and mouse thymocytes; assay: Cytotoxicity, trypan blue vital dye staining; settings: up to 10 μg/ml
Experimental: Potential cytotoxicity of tripterinin was assessed by measurement of the effect of the compound on reduction of MTT (3-[4,5-Dimethylthiazol-2-yl]-2,5-diphenyltetrazolium bromide) by cultured cells, an index of cellular respiration and a sensitive assay for the detection of cytotoxicity (Green, et al.). Toxicity was evaluated in vitro in human PBLs and in mouse thymocytes, as detailed in Example 7. Sodium azide was used as a cytotoxic control. Cytotoxicity was also assessed using the standard method of trypan blue dye staining.
Cytotoxicity was assessed in cultured human PBLs and mouse thymocytes. A stock solution of MTT (Sigma), 5 mg MTT/ml phosphate buffered saline, pH 7.4, was prepared and stored in the dark at 4° C. Following 21 hours incubation under conditions identical to those above, 25 μl of MTT solution was added to each culture well. After an additional 3 hour incubation, the experiment was terminated by addition of a solution of 10% sodium dodecyl sulfate in 0.01N HCl. Following overnight incubation at 37° C. (to solubilize the formazan crystals, the MTT reduction product), optical density was determined at 570-650 nm in a Molecular Devices microtiter plate reader. Data are expressed as the ratio of the optical density of the tripterinin treated sample to that of untreated controls. […] The standard method of trypan blue vital dye staining was also used to assess toxicity.

mouse thymocytes = assay: Inhibition of IL-1 action: IL-1 stimulated mouse thymocyte proliferation in presence of PHA
Experimental: The ability of tripterinin and tripterifordin to suppress the cell-proliferative effect of IL-1 in mouse thymocytes, an index of IL-1 action (O'Gara), was also examined. In this study, mouse thymocytes in culture were stimulated with IL-1 in the presence of phytohemagglutinin (PHA) and increasing concentrations of purified tripterinin or tripterifordin. The cells were cultured for 72 hours, and during the last four hours, incubated with tritiated thymidine. DNA synthesis was assessed by measurement of radiolabeled thymidine incorporation.
Mouse thymocytes were prepared, and the action of IL-1, which stimulates thymocyte proliferation, was measured using standard techniques (O'Gara). Three to six week old C3H/HeN mice were obtained from Simonsen Laboratories, Gilroy, Calif. and sacrificed by CO2 inhalation. Thymi were removed, separated from adherent non-thymic tissue, homogenized in Hank's balanced salt solution (Gibco) using a glass homogenizer, and centrifuged at 180×g for 10 minutes at 15° C. Following an additional wash in HBSS, the thymocytes were resuspended in RPMI 1640 tissue culture medium (Gibco) containing 50 μM 2-mercaptoethanol (Fisher), 2 mM glutamine (Gibco), 1 mM sodium pyruvate, non-essential amino acids, penicillin (100 U/ml) streptomycin (100 μg/ml), 10% heat inactivated fetal bovine serum and Phytohemagglutinin (PHA, Pharmacia, final concentration 10 μg/ml). Cells were cultured in round-bottom 96 well microtiter tissue culture plates, 6×10^5 cells per well in a volume of 100 μl. Tripterinin or tripterifordin was diluted in tissue culture medium and added to the wells in the presence and absence of IL-1 (recombinant human IL-1, R&D Systems catalog #201-LB, 0.1 ng/ml). Total volume was 150 μl per well.
Plates were incubated for 72 hours (95% air/5% CO2, 37° C.). During the last four hours of incubation, [^3 H]-thymidine (Amersham, […]) was added (0.5 μCi per well). Cells were harvested onto Whatman 934-AH glass microfiber filters and counted in a Beckman LS 6000 scintillation counter. Results were expressed as counts per minute per well.

IL-6 = IL-6 production by PHA stimulated human PBLs (ELISA); settings: 24 h
Experimental: as §1, §2, §3

C[C@]12CCC[C@]3(COC1=O)[C@@H]2CC[C@@]12C[C@@H](CC[C@]13O)[C@](C)(O)C2 [tripterinin]
fold inhibition of IL-2 induced DNA synthesis (HT-2 cells; concentration range 0 to 0.78 μg/ml): > 10 fold | fold decrease in IL-2 induced HT-2 cell proliferation (thymidine incorporation) (HT-2 cells; tripterinin 0.4 μg/ml): more than 10 fold | decrease in IL2 production (IL2; 0.7 μg/ml tripterinin): 96% | decrease in IL2 production (IL2; 3.13 μg/ml tripterinin): 96% | cytotoxicity (trypan blue staining) [1]: consistent with those from the MTT reduction assay | cytotoxicity (trypan blue staining) ([1]; listed as Tripterinin): no significant toxicity | concentration at which IL-1 stimulated cell proliferation was inhibited (mouse thymocytes; mouse thymocytes, IL-1 with PHA, FIG. 10): about 0.2 μg/ml | inhibition of IL-1 stimulated thymocyte proliferation (mouse thymocytes; tripterifordin 3.13 μg/ml, about 3 μg/ml, tripterinin 0.02 to 1 μg/ml): dose dependent inhibition | decrease in IL-6 production (IL-6; 0.7 μg/ml tripterinin): 83% | decrease in IL-6 production (IL-6; 3.13 μg/ml tripterinin): 99%
